# Laboratory results reported in US20240336926A1, “PHARMACEUTICAL COMPOSITION FOR TREATING TRIPLE NEGATIVE BREAST CANCER, CONTAINING NON-NATURAL NUCLEIC ACID LIGAND AS ACTIVE INGREDIENT” (INTEROLIGO CORPORATION, priority 2021, published 2024).
# pKd: −log10 of the molar value. Read-outs that look alike come from different tables or passages of the source. [NapdU] = 5-(N-(1-naphthylmethyl)carboxamide)-2'-deoxyuridine (Nap-dU)
# Assays:
# [1] = molecular target: K-RAS G12D protein (Homo sapiens, UniProt P01116, G12D); test: ELISA binding affinity (Kd) for 2nd target; conditions: read-out: Biding affinity for 2nd target Kd, ligands with biotin conjugated to the 5′-end
# Protocol: The binding affinity of the nucleic acid ligands were measured using enzyme linked immunosorbent assay (ELISA).
# The test method was composed of the following steps. • 1) A target protein was coated on a microplate at a low temperature for 16 hours. • 2) The surface of the microplate was blocked by reaction at room temperature for 1 hour using Blocking Buffer (Pierce™ Protein-Free (PBS) Blocking Buffer, Thermo Scientific, USA). • 3) The microplate was treated with a nucleic acid ligand, followed by reaction at 37° C. for 1 hour. • 4) For enzyme conjugation, the microplate was treated with a streptavidin-horseradish peroxidase (HRP) conjugate (Thermo Scientific, USA), followed by reaction at room temperature for 1 hour. • 5) The microplate was treated with TMB substrate solution (Thermo Scientific, USA), followed by reaction at room temperature for 30 minutes. • 6) The microplate was treated with a reaction termination solution (2 M sulfuric acid). • 7) The absorbance was measured at 450 nm using GloMax plate meter (Promega, USA).
# The target protein and the nucleic acid ligand were each used at 4-fold dilution starting from 500 nM.
# [2] = molecular target: human serum albumin (HSA) (Homo sapiens, UniProt P02768); test: ELISA binding affinity (Kd) for 1st target
# Chain of human serum albumin (HSA) (P02768 25-609): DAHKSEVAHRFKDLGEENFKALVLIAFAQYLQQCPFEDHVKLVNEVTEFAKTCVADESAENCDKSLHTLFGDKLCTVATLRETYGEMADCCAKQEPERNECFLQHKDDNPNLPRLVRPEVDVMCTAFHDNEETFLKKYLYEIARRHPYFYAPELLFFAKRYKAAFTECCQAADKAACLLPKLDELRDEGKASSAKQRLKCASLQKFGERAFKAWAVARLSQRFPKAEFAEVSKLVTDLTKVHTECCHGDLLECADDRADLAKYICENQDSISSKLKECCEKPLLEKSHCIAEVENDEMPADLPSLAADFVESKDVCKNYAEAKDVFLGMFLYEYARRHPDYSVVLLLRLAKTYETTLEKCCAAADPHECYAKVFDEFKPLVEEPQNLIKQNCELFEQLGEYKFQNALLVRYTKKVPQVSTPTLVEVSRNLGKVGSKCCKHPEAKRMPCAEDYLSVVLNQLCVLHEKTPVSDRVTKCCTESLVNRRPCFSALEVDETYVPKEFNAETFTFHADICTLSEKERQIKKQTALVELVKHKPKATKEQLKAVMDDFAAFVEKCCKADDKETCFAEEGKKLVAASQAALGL
# [3] = Serum half-life in human serum (urea-PAGE band intensity); assay type: in vitro ADME; conditions: 96% human serum, 37° C.; ligands with biotin conjugated to the 5′-end
# Protocol: The stabilized nucleic acid ligand was added to the 96% human serum and then reacted at 37° C. for 0, 3, 6, 9, 12, 15, and 18 hours, thereby inducing the degradation of the nucleic acid ligand. After each of the reaction times, the nuclease was inactivated by heating at 85° C., and electrophoresis was performed on a 10% urea-polyacrylamide gel. A control without the addition of human serum was included as a loading control, and the band intensities of the control and the test groups were measured. The intensity trend line over time was determined using the measurement values, and the intensity value was inserted into the trend equation to obtain the half-life.
Substance,pKd [1],pKd [2],Serum half-life t½ [3] [h],"pKd ([2]; HSA, ELISA, ligands with biotin conjugated to the 5′-end, read-out: Biding affinity for 1st target Kd)"
"AD004: truncated nucleic acid ligand GCCTGGAC6AGCA6AAG6CCGGA6GGCAGC666A6GCCGACCA6CAGCC, 6 = Nap-dU (DNA GCCTGGACUAGCAUAAGUCCGGAUGGCAGCUUUAUGCCGACCAUCAGCC; aptamer; DNA, [NapdU] at 9, 14, 18, 24, 31, 32, 33, 35, 44, backbone and methylation of C not given here)",7.78,6.72,–,–
"AD005: truncated nucleic acid ligand GAC6AGCA6AAG6CCGGA6GGCAGC666A6GCCGACCA6, 6 = Nap-dU (DNA GACNAGCANAAGNCCGGANGGCAGCNNNANGCCGACCAN; Nap-dU modified bases; modified_base 4 OTHER; 5-(N-(1-naphthylmethyl)carboxamide)-2-deoxyuridine; modified_base 9 OTHER; 5-(N-(1-naphthylmethyl)carboxamide)-2'-deoxyuridine(Nap-dU); modified_base 13 OTHER; modified_base 19 OTHER; modified_base 26..28 OTHER; 5-(N-(1-naphthylmethyl)carboxamide)-2'-deox)",7.64,–,30.1,6.91
"AD006: truncated nucleic acid ligand GAC6AGCA6AAG6CCGGA6GGCAGC666A6GCCG, 6 = Nap-dU (DNA GACUAGCAUAAGUCCGGAUGGCAGCUUUAUGCCG; aptamer; DNA, [NapdU] at 4, 9, 13, 19, 26, 27, 28, 30, backbone and methylation of C not given here)",7.11,6.03,–,–
"AD007: truncated nucleic acid ligand GCA6AAG6CCGGA6GGCAGC666A6GCCGACC, 6 = Nap-dU (DNA GCAUAAGUCCGGAUGGCAGCUUUAUGCCGACC; aptamer; DNA, [NapdU] at 4, 8, 14, 21, 22, 23, 25, backbone and methylation of C not given here)",6.82,6.27,–,–
"AD008: truncated nucleic acid ligand GCA6AAG6CCGGA6GGCAGC666A6GC, 6 = Nap-dU (DNA GCAUAAGUCCGGAUGGCAGCUUUAUGC; aptamer; DNA, [NapdU] at 4, 8, 14, 21, 22, 23, 25, backbone and methylation of C not given here)",6.54,7.17,–,–
